Source: patent US10556860B2, “hTERT modulators and methods of use” (Arizona Board of Regents on Behalf of the University of …, priority 2015, dated 2020)
pKd: −log10 of the molar value.

Columns and labels:
[1] = target: G124/125A 5-12 G-quadruplex of hTERT core promoter; experiment: FRET assay for Kd, G124/125A probe; assay type: binding, human
Method: (§1) FRET assay for compound screening and determination of Kd value. FRET probes of WT, G124/125A, and G146A of the 5-12 G-quadruplex were synthesized and labeled with FAM (Ex. 490 nm/Em. 520 nm) and TAMRA (Ex. 560 nm/Em. 580 nm) at each end by MGW Operon Inc. The WT probe (50 nM) was annealed in a buffer containing 10 mM Tris-HCl (pH 7.5) and 5 mM KCl by heating at 95° C. for 5 min and slowly cooling to room temperature. Compounds (50 μM) and probe were incubated for 1 h at room temperature. The same volume of DMSO served as a control. For Kd value determination, the WT, G124/125A, and G146A probes were annealed, and then several concentrations of compound were treated for 1 h at room temperature. Dose-dependent fluorescence intensity at 520 nm was measured by a microplate reader (BioTek Synergy HT). The data were corrected with the blank signal of buffer and compound. The relative fluorescence intensity compared to DMSO was used for binding curve fitting to determine Kd value using GraphPad Prism software.
(§2) The hTERT core promoter region includes 12 runs of consecutive guanines that form two G-quadruplexes in tandem on the G-rich strand. […] When the G-quadruplex is folded, two fluorophores are in proximity, which leads to a decrease in FAM fluorescence. […]

[2] = target: G146A 5-12 G-quadruplex of hTERT core promoter; experiment: FRET assay for Kd, G146A probe; assay type: binding, human
Method: as §1, §2

[3] = test system: G146A mutant hTERT G-quadruplex; experiment: CD melting (Tm), G146A mutant; assay type: binding, human; conditions: 2 equiv
Method: Circular dichroism. Oligomers of WT, G124A, G124/125A, G138/139A and G146A were synthesized and HPSF-purified by MGW Operon, Inc. For CD analysis, oligomers (5 μM) in a buffer containing 10 mM Tris-HCl (pH 7.5) and 140 mM KCl were annealed. For the CD analysis of the complex of oligomers and compounds, oligomers (5 μM) in a buffer containing 10 mM Tris-HCl (pH 7.5) and 5 mM KCl for GTC365 or 1 mM KCl for BRACO-19 were annealed. Oligomers and GTC365 or BRACO-19 were incubated overnight at room temperature. For the full-length of C-rich strand, the oligomer in a buffer of 10 mM Na cacodylate (pH 6.6) was annealed and then incubated with GTC365 overnight. CD analysis was conducted on a Jasco 810 spectropolarimeter (Jasco, Easton, Md.) using a quartz cell with 1 mm of path length, 1 nm of band width, and 1 s of response time for spectra at 20° C. Melting curves for the determination of Tm were obtained by recording ellipticity at 262 nm with increasing temperatures from 25° C. to 95° C. at a rate of 1.6° C./min. Tm of the C-rich strand with GTC365 was obtained from the CD signal at 286 nm within 10-60° C.
CD and DMS footprinting analyses were conducted to characterize the binding of GTC365 and BRACO-19 to the 5-12 G-quadruplex. […] To verify the effects of compounds on the thermal stability of the WT and the mutant G-quadruplexes, Tms were determined by CD. […]

MCF7 cells = experiment: Senescence β-galactosidase assay; assay type: cell-based, human; conditions: 0.5 μM, 5-10 days
Method: Senescence β-galactosidase assay. A colorimetric β-galactosidase assay was performed. Briefly, compound-treated MCF7 cells were fixed in 2% formaldehyde and 0.2% glutaraldehyde for 5 min at room temperature. Fixed cells were incubated with staining solution containing 40 mM citric acid (pH 6.0), 5 mM potassium ferrocyanide, 5 mM potassium ferricyanide, 150 mM NaCl, and 2 mM MgCl2 and 1 mg/ml X-gal (Fermentas R0401) for 7 h at 37° C. Stained cells were washed with D-PBS and methanol and subsequently dried in air.
Since senescence is one of the outcomes resulting from loss of telomere length, this was measured by the associated overexpression of lysosomal β-galactosidase, which releases indigo (blue dye) from X-gal. In addition, the cell morphology will also be dramatically changed so that cells appear to be flat and enlarged. […] Abnormal phenotypes such as bridges connecting two adjacent cells and multinucleated cells were also observed in GTC365-treated cells. hTERT is known to localize to mitotic spindles and centromeres and regulate the expression of genes involved in heterochromatin maintenance. In addition, there is alteration of expression of some proteins involved in collagen synthesis or tubulin organization by hTERT transfection.

[4] = test system: melanoma cell lines with characterized TERT promoter status (19 cell lines); experiment: 6-point 72 h MTS proliferation assay, WT versus promoter mutant melanoma cell lines; assay type: cell-based, human
Method: FIGS. 13A-13C are a set of graphs showingselective reduction in viability (A) and hTERT expression (B) in melanoma cells carrying hTERT core promotor mutations. NHM-002 (normal human melanocytes) and a G124A mutant cell line were treated with vehicle, 1.25, 2.5, and 5 μM GTC365 for 72 h. Viability was reduced in hTERT mutant melanoma cells by 50% (left). […] (C) Differential response to GTC365 in WT and promoter mutant cell lines.
Next, to assess the selectivity of GTC365 for hTERT-dependent cancer cells relative to normal precursorcells, we compared the effects of a range of […] on viability at 72 h in normal humanmelanocytes (NHM-002) relative to those of UACC-903, aG124A mutant (FIG. 13A). […] To confirm that the reduction in cell viability was aresult of hTERT downregulation, we performed reverse transcription and qPCR to measure the mRNA level of hTERT expression in cells treated with DMSO or 5 μMGTC365. hTERT expression was reduced by 41% in themelanoma cell line after 72 h but was undetectable in normalmelanocytes, even in the absence of GTC365 (FIG. 13B). Finally, tobroadly assess the selectivity of GTC365 for hTERT promotermutant versus WT cells, we conducted a 6-point 72 h MTSproliferation assay to determine EC50s in 14 additional melanoma cell lines with characterized TERT promoter status([…]) (FIG. 13C). […]

**Q.** What does the source list for `N=C(N)NCCCS(=O)(=O)Nc1ccc(Nc2c3ccccc3nc3cc([N+](=O)[O-])ccc23)cc1` [GTC365]?
**A.** pKd [1]: ~6.40; Kd value higher than WT and G124/125A [2]: 1.5 fold; Tm more increased compared to the WT [3]: 6-7 °C; senescence-like phenotype (β-galactosidase staining, morphology) (MCF7 cells): distinct senescence-like phenotype (SLP); response (EC50) in WT versus mutant melanoma cell lines [4]: significant differential response
